According to patent US20030134342A1, “Binding-specific peptides, binding-specific carrier molecules, and uses thereof” (priority 2001, published 2003):
Where no end group is shown, it is not given here.

Tests used:
[1] = tested on: all myeloid cells, both malignant and nonmalignant; assay: ELISA binding of phage displaying peptides to fixed cells: all myeloid cells; design: species or system human; conditions: in words
Method: (§1) Preliminary experiments were performed to identify specific peptides by using cells from patients diagnosed with CLL, CML, and AML. The screening was performed by incubating the cells with the phage-peptides from the library. This incubation allows interaction between the peptide and the cell. The binding step was followed by several washes to eliminate free phage. Phage bound on the cell surface was eluted.
(§2) After the last round of binding with one cell type, the eluted phage was plated on an agar plate with the appropriate selection antibiotics. Each individual colony, corresponding to one individual peptide sequence, was amplified in a 96-well plate. After purification, these peptides were tested for their ability to bind to the cells in a microtiter plate by ELISA.
(§3) Each peptide was dispensed in a 96-well plate, containing cells previously fixed. Each colony was tested in a triplicate assay with the appropriate controls. After incubation of cells with an individual clone, the wells were washed to eliminate free phage. The bound phages were detected by using a monoclonal anti-M13 antibody/horseradish peroxidase (HRP) conjugate. After addition of the HRP substrate, the intensity of the coloration was measured by spectrophotometry. The light absorbance values (optical density values, O.D. values) are proportional to the number of phage bound to the cells.
(§4) The binding to various cell types were examined to evaluate the cellular specificity of the phage clones. For example, the clones from phage eluted from CLL patient cells were assayed for their ability to bind cells from an AML patient. Cells from normal donors (non-leukemic) were also evaluated to ascertain leukemia cell specificity.
(§5) Peripheral blood and bone marrow samples were collected from patients after informed consent. The samples were collected in tubes containing sodium citrate. Mononuclear cells were isolated by Ficoll-Hypaque density gradient separation and collection of the cells at a density of 1.077 g/mL.
(§6) The wells of a 96-well plate were pre-treated with 100 μL of poly-L-lysine (0.01 mg/mL in phosphate-buffered saline, 120 mM NaCl, 2.7 mM KCl, 10 mM phosphate buffer, “PBS”) for 2-16 hours at room temperature. After draining the poly-L-lysine from the wells, the excess poly-L-lysine was removed from the wells by flicking. The cells were washed with PBS, then suspended in PBS and diluted to a final concentration of […]. The cell suspension (200 μL; 250,000 cells) were added to each well needed for the assay.
(§7) The plates were centrifuged at 500 g for about 5 minutes in a microplate carrying centrifuge when available. The cells were fixed to the wells through the addition of glutaraldehyde (100 μL of 0.5%) and incubating at room temperature for about an hour. The glutaraldehyde was removed and the cell-coated wells washed once with PBS. Alternatively, the cells were permitted to settle to the well bottoms for about 4 hours at 37° C., and the glutaraldehyde fixative was added after removing the PBS.
(§8) A glycine solution (200 μl of 0.1 M glycine in PBS) containing bovine serum albumin (BSA; 1%) was added to the wells and permitted to incubate for 30 minutes to block excess glutaraldehyde. The glycine was removed, and the cell-coated wells washed once with PBS. A sodium pyrophosphate solution (200 μL of 0.3 mg/mL NaPPi) was added to the wells and incubated for an hour at room temperature to neutralize lysine charges. The pyrophosphate solution was removed and the wells washed once with PBS. Multiwell microtiter plates with cell-coated wells were stored at 4° C. with fresh PBS solution in the coated wells.
(§9) The cells to be studied for binding were suspended in PBS and adsorbed onto to a poly-L-lysine pretreated 96-well plate and kept at 4° C. The PBS was removed from the wells and an H2O2 solution in PBS (6% H2O2 in 200 μL/well) was added. […]

[2] = tested on: human bone marrow AML cells; assay: Effect of phage-peptides on differentiation, cell number and viability of freshly obtained AML patient bone marrow cells cultured seven days; assay type: cell-based; conditions: for Number of Cells / Percent Differentiation: phage-peptides; for Percent differentiated in Specimen 1 / Percent differentiated in Specimen 2: peptides in bacteriophage, AML cells cultured seven days in vitro
From the text: The effect of various phage-peptides were studied on the differentiation of cells from two AML patients.

[3] = tested on: normal peripheral blood cells (lymphocytes and granulocytes); assay: ELISA binding of phage displaying peptides to fixed cells: normal peripheral blood cells; design: species or system human; conditions: in words
Method: as §1, §2, §3, §4, §5, §6, §7, §8, §9

CML cells = assay: ELISA binding of phage displaying peptides to fixed cells: CML cells; design: species or system human; conditions: in words
Method: as §1, §2, §3, §4, §5, §6, §7, §8, §9

AML cells = assay: ELISA binding of phage displaying peptides to fixed cells: AML cells; design: species or system human; conditions: in words
Method: as §1, §2, §3, §4, §5, §6, §7, §8, §9

CLL cells = assay: ELISA binding of phage displaying peptides to fixed cells: CLL cells; design: species or system human; conditions: in words
Method: as §1, §2, §3, §4, §5, §6, §7, §8, §9

AML bone marrow cells = assay: Methylcellulose culture of AML bone marrow cells with peptides: proliferation (colonies) and differentiation (morphology); assay type: cell-based, human; conditions: for Activation of Proliferation / Cell Differentiation / Inhibition of Proliferation: peptide alone; for Activation of Proliferation GM-CSF / Cell Differentiation GM-CSF: with GM-CSF
Method: The effect of various peptides were analyzed for their biological activity on cells from a patient with acute myelogenous leukemia. The AML cells were cultured into a semi-solid medium of methylcellulose in order to determine the cloning efficiency and the differentiation of the cells. The various peptides were introduced into the semi-solid cell culture at a concentration of 10^−4 M (0.1 mM) peptide. After 14 days continuous incubation of the cell cultures, the morphology of the cells were analyzed. The data are shown in FIG. 7 for the cultures and show the percentage of immature cells in the culture (solid black), the percentage of small myeloblasts (solid white), the percentage of young cells (dark gray), and the relative percentage of monocytes to […] (light gray). The data regarding the biological response of AML bone marrow cells in the presence of the various peptides is shown in the table below.

[4] = tested on: human myeloid leukemia cell line HL60; assay: Viability of HL60 cells, trypan blue; assay type: cell-based
Method: Studies were conducted of the effects of the free G5 12-8B (artificially synthesized), phage displaying G5 12-8B, the free A2 11-24 peptide, phage displaying the A2 11-24 peptide, a combination of the free G5 and A2 peptides, a combination of pure peptides plus phage displaying the peptides, and several concentrations of peptide.

For NNATVEDE [F9 11-24], the “binding of phage displaying the peptide to all myeloid cells, both malignant and nonmalignant” value (“binding … both malignant and nonmalignant” for short) [1] was “bind”.
In the case of NNATFEDG [G2 12-8A], the “Number of Cells” value ([2]; Patient 1) is reported as 0.93 106, the “Percent Differentiation” value ([2]; Patient 1) is reported as 27.5% and the “Number of Cells” value ([2]; Patient 2) is reported as 0.31 106. For the same sequence, the “Percent Differentiation” value ([2]; Patient 2) was 52%, the “Percent differentiated in Specimen 1” value [2] was 28% and the “Percent differentiated in Specimen 2” value [2] was 51%.
For CEFQQWSGKC [G5 12-8B], the “binding … both malignant and nonmalignant” value [1] was “bind”, the “binding of phage displaying the peptide to blood cells (lymphocytes or granulocytes)” value (“binding … (lymphocytes or granulocytes)” below) [3] was “bind” and the “binding of phage displaying the peptide to CML cells” value (“binding … to CML cells” for short) (CML cells) was “bind”. The “binding of phage displaying the peptide to AML cells” value (shortened to “binding … to AML cells”) (AML cells) was “bind” and the “binding of phage displaying the peptide to CLL cells” value (“binding … to CLL cells” below) (CLL cells) was “bind”.
“CIEETAAKGC [Peptide A2A, A2 with R replaced by A]” was tested, and the “Activation of Proliferation” value (AML bone marrow cells; fraction, not explained) was 4/11, the “Cell Differentiation” value (AML bone marrow cells; fraction, not explained) was 3/8 and the “Inhibition of Proliferation” value (AML bone marrow cells; fraction, not explained) was 1/11. The “Activation of Proliferation GM-CSF” value (AML bone marrow cells; fraction, not explained) was 2/4, the “Cell Differentiation GM-CSF” value (AML bone marrow cells; fraction, not explained) was 1/4 and the “activity on cell differentiation (FIG. 9, another example)” value (AML bone marrow cells; in words) was “have a biological activity”. The “activity on cell differentiation compared with the peptide with cysteine residues (FIG. 8)” value (AML bone marrow cells; in words) was “higher activity”, the “induction of differentiation of the patient cells (FIG. 8)” value (AML bone marrow cells; in words, AML bone marrow cells, 14 days methylcellulose) was “able to induce the differentiation” and the Inhibition of Proliferation (AML bone marrow cells; numbers of the AML patients whose cells responded) was 10. For the same sequence, the “Activation of Differentiation” value (AML bone marrow cells; patient numbers) was 3.
For EFQQWSGK [G2 11-24], the “Number of Cells” value ([2]; Patient 1) was 1.11 106, the “Percent Differentiation” value ([2]; Patient 1) was 16.2% and the “Number of Cells” value ([2]; Patient 2) was 0.25 106. The “Percent Differentiation” value ([2]; Patient 2) was 39%, the “Percent differentiated in Specimen 1” value [2] was 16% and the “Percent differentiated in Specimen 2” value [2] was 39%. For the same sequence, the “binding … to CML cells” value (CML cells) was “bind and binds” and the “binding … to AML cells” value (AML cells) was “bind and binds”.
With CNNATVEDEC [C8 12-8B] the “Activation of Proliferation” value (AML bone marrow cells; fraction, not explained) was 2/8, the “Cell Differentiation” value (AML bone marrow cells; fraction, not explained) was 1/8 and the “Activation of Proliferation GM-CSF” value (AML bone marrow cells; fraction, not explained) was 1/2. The “Cell Differentiation GM-CSF” value (AML bone marrow cells; fraction, not explained) was 1/2.
In the case of NETTVREY [F10 11-24], the “binding … both malignant and nonmalignant” value [1] is reported as “bind”, the “binding … to CML cells” value (CML cells) is reported as “bind” and the “binding … to AML cells” value (AML cells) is reported as “bind”. For the same sequence, the “binding … to CLL cells” value (CLL cells) was “not”.
IEETARKG [peptide A2] was tested, and the “Day 5 Viability” value ([4]; 5 day) was 97%, the “Day 7 Viability” value ([4]; 7 day) was 95% and the “Day 9 Viability” value ([4]; 9 day) was 74%.
With NETTVREY [C9 11-24] the “binding … both malignant and nonmalignant” value [1] was “bind”, the “binding … (lymphocytes or granulocytes)” value [3] was “bind” and the “binding … to CML cells” value (CML cells) was “bind”. The “binding … to AML cells” value (AML cells) was “bind” and the “binding … to CLL cells” value (CLL cells) was “bind”.
With VSEDIYDA [E5 12-8B] the “binding … (lymphocytes or granulocytes)” value [3] was “bind” and the “binding … to CLL cells” value (CLL cells) was “bind”.
In the case of VSEDIYDA [C10 12-8B], the “binding … both malignant and nonmalignant” value [1] is reported as “bind”, the “binding … to CML cells” value (CML cells) is reported as “bind” and the “binding … to AML cells” value (AML cells) is reported as “bind”. The “binding … to CLL cells” value (CLL cells) was “bind”.
In the case of EFQQWSGK [B7(1)], the “binding … to CML cells” value (CML cells) is reported as “bind”, the “binding … to AML cells” value (AML cells) is reported as “bind” and the “binding … to CLL cells” value (CLL cells) is reported as “not”.
In the case of NETTVREY [A7 11-24], the “binding … (lymphocytes or granulocytes)” value [3] is reported as “bind” and the “binding … to CLL cells” value (CLL cells) is reported as “bind”.
In the case of NHVCSRLG [B4(2)], the “binding … (lymphocytes or granulocytes)” value [3] is reported as “bind”, the “binding … to CML cells” value (CML cells) is reported as “bind” and the “binding … to AML cells” value (AML cells) is reported as “bind”. The “binding … to CLL cells” value (CLL cells) was “bind”.
